Values of other authors, collected in patent US20140127235A1, “TARGETING HK alpha FOR CONTROLLING BLOOD PRESSURE AND REGULATING ELECTROLYTE BALANCE” (UNIVERSITY OF FLORIDA RESEARCH FOUNDATION, INC., priority 2011, published 2014).

Tests used:
H^+,K^+-ATPase = conditions: rats, seven days low, normal or high aldosterone levels, normal and high K+ diets; cited from earlier work
HKa2 mRNA = conditions: progesterone alone (Elabida et al., 2011); cited from earlier work
[1] = target: HKα1-containing H^+,K^+-ATPases (Homo sapiens, UniProt P20648); conditions: subsequent studies; cited from earlier work
HKα1-containing H^+,K^+-ATPases, sequence (P20648 whole entry): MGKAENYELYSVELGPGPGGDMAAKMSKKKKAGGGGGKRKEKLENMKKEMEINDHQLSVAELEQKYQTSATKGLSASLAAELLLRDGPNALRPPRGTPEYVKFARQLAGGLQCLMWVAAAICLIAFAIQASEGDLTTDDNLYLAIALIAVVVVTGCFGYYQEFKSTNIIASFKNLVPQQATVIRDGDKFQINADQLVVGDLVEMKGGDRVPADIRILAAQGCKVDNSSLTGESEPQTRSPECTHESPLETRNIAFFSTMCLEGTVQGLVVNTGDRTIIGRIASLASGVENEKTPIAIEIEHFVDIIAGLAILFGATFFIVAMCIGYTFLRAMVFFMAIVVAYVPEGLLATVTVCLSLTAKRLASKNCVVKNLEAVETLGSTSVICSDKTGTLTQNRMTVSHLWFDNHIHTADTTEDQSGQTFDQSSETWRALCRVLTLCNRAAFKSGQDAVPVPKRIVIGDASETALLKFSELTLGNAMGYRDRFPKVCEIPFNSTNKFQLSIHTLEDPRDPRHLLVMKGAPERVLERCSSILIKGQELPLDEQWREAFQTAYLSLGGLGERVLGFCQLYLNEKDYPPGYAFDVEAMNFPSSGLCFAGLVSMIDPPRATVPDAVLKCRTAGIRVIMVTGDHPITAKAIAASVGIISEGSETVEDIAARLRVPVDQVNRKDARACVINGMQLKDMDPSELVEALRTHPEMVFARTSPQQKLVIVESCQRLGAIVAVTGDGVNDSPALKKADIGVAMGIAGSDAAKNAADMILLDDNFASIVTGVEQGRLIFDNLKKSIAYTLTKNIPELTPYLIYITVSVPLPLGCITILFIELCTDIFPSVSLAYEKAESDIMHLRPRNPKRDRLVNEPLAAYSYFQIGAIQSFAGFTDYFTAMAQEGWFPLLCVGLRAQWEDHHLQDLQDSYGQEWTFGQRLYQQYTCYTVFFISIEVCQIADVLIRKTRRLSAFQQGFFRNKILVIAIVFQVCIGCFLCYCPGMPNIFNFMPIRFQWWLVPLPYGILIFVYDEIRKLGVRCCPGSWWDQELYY
HKα1-containing H^+,K^+-ATPases, sequence (P51164 whole entry partner): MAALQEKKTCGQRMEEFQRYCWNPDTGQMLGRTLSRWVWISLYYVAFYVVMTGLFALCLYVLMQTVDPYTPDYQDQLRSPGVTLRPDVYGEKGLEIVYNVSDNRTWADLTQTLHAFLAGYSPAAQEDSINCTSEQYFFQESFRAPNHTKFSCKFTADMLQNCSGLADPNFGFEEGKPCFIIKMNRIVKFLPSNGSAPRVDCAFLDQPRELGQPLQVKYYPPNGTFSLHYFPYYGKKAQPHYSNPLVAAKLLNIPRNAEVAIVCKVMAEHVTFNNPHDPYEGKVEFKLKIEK

Compound: C[C@]12CCC(=O)C=C1CC[C@@H]1[C@@H]2[C@@H](O)C[C@]2(C=O)[C@@H](C(=O)CO)CC[C@@H]12 [aldosterone]
- effect on Schering 28080-sensitive ATPase activity (H^+,K^+-ATPase): did not significantly affect

Compound: CC(=O)[C@H]1CC[C@H]2[C@@H]3CCC4=CC(=O)CC[C@]4(C)[C@H]3CC[C@]12C [progesterone]
- effect on renal HKa2 mRNA expression (HKa2 mRNA): stimulated

Compound: Cc1nc2c(OCc3ccccc3)cccn2c1CC#N [Schering 28080]
- H+,K+-ATPase isoform inhibited [1]: only inhibit the HKα1-containing H^+,K^+-ATPases
